Experimental findings from ChEMBL document CHEMBL5046276 (J Med Chem, 2022) are described below.

For data set [1], the target named is T1, Protein deacetylase HDAC6 (Homo sapiens, UniProt Q9UBN7).
T1 sequence (Q9UBN7 whole entry): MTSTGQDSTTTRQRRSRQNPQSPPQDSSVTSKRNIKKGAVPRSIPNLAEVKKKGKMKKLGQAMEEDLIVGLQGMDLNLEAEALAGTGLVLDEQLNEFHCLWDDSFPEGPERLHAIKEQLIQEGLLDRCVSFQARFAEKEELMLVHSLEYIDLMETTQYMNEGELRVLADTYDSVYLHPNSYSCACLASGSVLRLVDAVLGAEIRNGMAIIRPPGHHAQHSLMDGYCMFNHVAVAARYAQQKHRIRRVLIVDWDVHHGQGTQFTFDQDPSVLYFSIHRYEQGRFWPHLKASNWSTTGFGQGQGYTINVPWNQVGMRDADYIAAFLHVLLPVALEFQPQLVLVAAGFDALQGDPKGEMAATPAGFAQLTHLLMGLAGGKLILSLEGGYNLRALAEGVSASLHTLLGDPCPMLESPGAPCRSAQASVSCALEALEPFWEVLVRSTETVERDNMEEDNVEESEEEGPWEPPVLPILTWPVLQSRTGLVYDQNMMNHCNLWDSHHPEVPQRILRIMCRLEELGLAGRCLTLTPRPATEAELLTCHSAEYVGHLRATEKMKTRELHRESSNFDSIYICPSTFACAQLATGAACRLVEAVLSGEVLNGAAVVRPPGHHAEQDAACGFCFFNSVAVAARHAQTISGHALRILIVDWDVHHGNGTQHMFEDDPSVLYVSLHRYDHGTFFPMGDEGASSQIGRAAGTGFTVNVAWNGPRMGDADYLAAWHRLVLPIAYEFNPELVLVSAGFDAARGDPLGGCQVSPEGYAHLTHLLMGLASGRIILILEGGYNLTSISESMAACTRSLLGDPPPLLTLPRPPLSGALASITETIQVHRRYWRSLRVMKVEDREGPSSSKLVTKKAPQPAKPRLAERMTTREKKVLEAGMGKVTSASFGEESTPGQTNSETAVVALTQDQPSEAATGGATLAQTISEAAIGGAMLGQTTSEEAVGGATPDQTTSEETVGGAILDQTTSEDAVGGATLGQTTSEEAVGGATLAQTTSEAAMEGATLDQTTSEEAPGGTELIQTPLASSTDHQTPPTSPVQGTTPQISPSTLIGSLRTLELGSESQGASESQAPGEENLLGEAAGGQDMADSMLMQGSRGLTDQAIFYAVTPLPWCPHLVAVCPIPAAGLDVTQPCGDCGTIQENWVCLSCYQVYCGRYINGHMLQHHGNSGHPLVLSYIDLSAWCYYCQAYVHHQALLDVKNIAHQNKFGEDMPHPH
Put plainly: Inhibition of recombinant human full length N-terminal GST tagged HDAC6 (1 to 1215 residues) expressed in baculovirus-infected Sf9 cells using Ac-peptide as substrate incubated for 4 hrs.

Data set [2] is described as follows: Apparent elimination half life in BALB/c mouse at 5 mg/kg, ip measured after upto 24 hrs by LC-MS/MS analysis. The data set is classed as ADME, organism-based. The conditions noted are these: in vivo, read-out: betat1/2(app) (converted).
Data set [3] in a line: Tmax in BALB/c mouse at 5 mg/kg, ip measured after upto 24 hrs by LC-MS/MS analysis. The data set is classed as ADME, organism-based. Particulars: in vivo.
Data set [4] concerns Plasmodium falciparum. Briefly: Antimalarial activity against asexual blood stage quinine-resistant Plasmodium falcipuram C2A assessed as parasite growth inhibition incubated for 72 hrs by SYBR Green I staining based fluorescence analysis. Type of data set: functional, organism-based.
The test system of data set [5] is Plasmodium yoelii. Put plainly: Antimalarial activity against blood stage Plasmodium yoelii infected in BALB/c mouse assessed as parasite recrudescence by measuring parasitemia at 60 mg/kg, ip qd for 5 days and measured on 11 to 15 days. Type of data set: functional. The conditions noted are these: time 11-15 day.
Data set [6] concerns Plasmodium yoelii. Briefly: Antimalarial activity against blood stage Plasmodium yoelii infected in BALB/c mouse assessed as inhibition of parasitemia at 60 mg/kg, ip qd for 5 days and measured after 30 days. The data set is classed as functional, organism-based. The conditions noted are these: time 30.0 day.
The target in data set [7] is Histone deacetylase 3 (Homo sapiens, UniProt O15379). Put plainly: Potency index, ratio of test compound IC50 to Quisinostat IC50 for inhibition of human C-terminal His tagged HDAC3 (1 to 428 residues) expressed in baculovirus-infected Sf9 cells using Ac-peptide as substrate incubated for 4 hrs.
For data set [8], the target named is Histone deacetylase 1 (Homo sapiens, UniProt Q13547). Put plainly: Potency index, ratio of test compound IC50 to Quisinostat IC50 for inhibition of recombinant human full length C-terminal His/FLAG tagged HDAC1 (1 to 482 residues) expressed in baculovirus-infected Sf9 cells using Ac-peptide as substrate incubated for 4 hrs.
In data set [9] the test system is Plasmodium falciparum. Put plainly: Antimalarial activity against synchronized Plasmodium falcipuram 3D7 infected in human RBC assessed as irreversible inhibition of parasite growth at ring stage at 40 nM treated at 5 to 17 hpi incubated for 12 hrs followed by compound washout and replacement with fresh medium without compounds and measured after 4 days by flow cytometry. The data set is classed as functional, organism-based. In general terms: In flow cytometry, cells or beads pass a laser one at a time.

Data set [10] relates to Plasmodium falciparum. Put plainly: Antimalarial activity against synchronized Plasmodium falcipuram 3D7 infected in human RBC assessed as irreversible inhibition of parasite growth at trophozoite stage at 40 nM treated at 17 to 29 hpi incubated for 12 hrs followed by compound washout and replacement with fresh medium without compounds and measured after 4 days by flow cytometry. Type of data set: functional, organism-based.

The nature of data set [11]: Toxicity in BALB/c mouse infected with liver stage transgenic Plasmodium berghei ANKA sporozoites transfected with GFP-Luc assessed as animal death at 30 mg/kg, iv measured on day 4 post-administration. The conditions noted are these: in vivo, 96 h, time 4 day. The data set is classed as organism-based.
Data set [12] relates to Plasmodium falciparum. Put plainly: Antimalarial activity against asexual blood stage chloroquine-resistant Plasmodium falciparum Dd2 assessed as parasite growth inhibition incubated for 72 hrs by SYBR Green I staining based fluorescence analysis. Type of data set: functional, organism-based. The conditions noted are these: Dd2, 72 h.
Data set [13] deals with Plasmodium berghei. Briefly: Antimalarial activity against liver stage transgenic Plasmodium berghei ANKA sporozoites transfected with GFP-Luc infected in BALB/c mouse assessed as delayed progression of infection at 30 mg/kg, iv measured for 1 to 4 days post-administration by IVIS spectrum in vivo imaging analysis. Type of data set: functional, organism-based. Particulars: time 1-4 day.

Data set [14] is described as follows: Metabolic stability in human liver microsomes assessed as half life at […] incubated for 45 mins in presence of NADPH by LC/MS analysis. Type of data set: ADME, Microsome.
The nature of data set [15]: Cytotoxicity against human HepG2 cells incubated for 72 hrs by CCK-8 assay. A general note: Formazan colour is commonly taken as a measure of viable cells.
Data set [16] concerns the target Histone deacetylase 2 (Homo sapiens, UniProt Q92769). Put plainly: Potency index, ratio of test compound IC50 to Quisinostat IC50 for inhibition of recombinant human full length C-terminal His tagged HDAC2 (1 to 488 residues) expressed in baculovirus-infected Sf9 insect cells using Ac-peptide as substrate incubated for 4 hrs.

As usually defined, the pIC50 is the negative decadic logarithm of the IC50, by convention in mol/L. By Tmax is commonly meant the time from dosing to the highest level. The term IC50 denotes the concentration that inhibits the measured activity by half. Low values mean greater potency in that assay, high ones weaker potency in that assay.

pIC50: −log10 of the molar value. Activity calls are given as the source filed them. No cut-off for these calls is given here.

Histone deacetylase 1, sequence (Q13547 whole entry, the tested form may be a part): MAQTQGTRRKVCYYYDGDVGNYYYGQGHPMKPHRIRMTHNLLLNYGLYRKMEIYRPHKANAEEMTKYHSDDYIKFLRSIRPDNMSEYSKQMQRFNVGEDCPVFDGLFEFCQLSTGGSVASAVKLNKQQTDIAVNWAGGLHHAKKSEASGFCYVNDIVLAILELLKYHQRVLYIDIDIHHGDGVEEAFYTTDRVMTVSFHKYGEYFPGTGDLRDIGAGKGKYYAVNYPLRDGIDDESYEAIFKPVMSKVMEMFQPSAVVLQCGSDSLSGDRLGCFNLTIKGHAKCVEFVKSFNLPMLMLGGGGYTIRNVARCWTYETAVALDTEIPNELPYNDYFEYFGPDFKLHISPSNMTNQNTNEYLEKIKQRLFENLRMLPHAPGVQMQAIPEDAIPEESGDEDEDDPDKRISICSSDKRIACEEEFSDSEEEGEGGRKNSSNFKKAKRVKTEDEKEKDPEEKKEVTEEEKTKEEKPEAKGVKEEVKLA
Histone deacetylase 2, sequence (Q92769 whole entry, the tested form may be a part): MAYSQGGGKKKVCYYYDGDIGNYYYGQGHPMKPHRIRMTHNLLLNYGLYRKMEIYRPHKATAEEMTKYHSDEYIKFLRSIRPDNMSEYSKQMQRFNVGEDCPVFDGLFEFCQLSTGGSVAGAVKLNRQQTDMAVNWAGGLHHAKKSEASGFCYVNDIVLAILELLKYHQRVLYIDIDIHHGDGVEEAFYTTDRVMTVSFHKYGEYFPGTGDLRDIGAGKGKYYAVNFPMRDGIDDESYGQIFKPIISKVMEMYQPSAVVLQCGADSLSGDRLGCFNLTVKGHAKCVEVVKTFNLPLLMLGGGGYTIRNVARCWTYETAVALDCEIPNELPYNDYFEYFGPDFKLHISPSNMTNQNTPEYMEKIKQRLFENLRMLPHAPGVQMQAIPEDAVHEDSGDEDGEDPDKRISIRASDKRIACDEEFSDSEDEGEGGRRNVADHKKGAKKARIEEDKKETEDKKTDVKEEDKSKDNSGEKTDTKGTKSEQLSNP
Histone deacetylase 3, sequence (O15379 whole entry, the tested form may be a part): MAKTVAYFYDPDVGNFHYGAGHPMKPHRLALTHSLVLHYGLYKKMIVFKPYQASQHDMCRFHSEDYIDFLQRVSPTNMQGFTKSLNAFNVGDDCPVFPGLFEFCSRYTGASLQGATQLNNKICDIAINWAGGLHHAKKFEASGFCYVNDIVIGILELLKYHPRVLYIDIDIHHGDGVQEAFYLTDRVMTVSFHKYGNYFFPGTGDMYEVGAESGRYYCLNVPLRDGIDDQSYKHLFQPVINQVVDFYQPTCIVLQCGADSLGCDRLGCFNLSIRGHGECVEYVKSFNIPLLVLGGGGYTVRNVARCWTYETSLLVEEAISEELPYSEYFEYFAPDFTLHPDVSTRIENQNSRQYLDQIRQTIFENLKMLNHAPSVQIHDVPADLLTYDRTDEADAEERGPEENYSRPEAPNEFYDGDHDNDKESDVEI

Take `Cl.Cn1cc(CN2CC3(CCN(c4ncc(C(=O)NO)cn4)C3)C2)c2ccc(C#N)cc21`: the pIC50 in [1] is 7.07; in data set [4], 8.66; in data set [12], 8.79. The half-life was 54.6 min in data set [2] and over 120 min in data set [14]. Also, the Tmax in data set [3] was 15 min. The figures for the Activity in data set [5] and in data set [11] were 0.01% and “Non-Toxic”, respectively. The result in [6], in data set [9], in data set [10] and in data set [13] was Active. In addition, the Ratio IC50 in data set [7], in data set [8] and in data set [16] was 3 each time. Further, the IC50 at 72 h in [15] is 1.02 µM.
